Experimental data from patent publication US20180369186A1, “METHOD FOR MODULATING AUTOPHAGY AND APPLICATIONS THEREOF” (JAWAHARLAL NEHRU CENTRE FOR ADVANCED SCIENTIFIC RESEARCH, priority 2015, published 2018).

Key:
[1] = Rotarod test in MPTP mice; type: in vivo; settings: 5 mg/kg
Method: (§1) All the behavioural experiments are done on 3-4 month old, male C57/B16 mice. Experimenters are blind to the drug injected animals. Experimenters handle mice used for behavioral experiments for 3 consecutive days prior to the training paradigm. Behavioral experiments are designed in an order of low to high stress activity for mice. Therefore, Open Field Test is conducted in forenoon while rotarod is performed in the afternoon.
(§2) Mice were habituated to the behaviour room for 15 minutes every day before start of experiments. The light intensity is maintained at 100 lux throughout the experiment. Mice are weighed every day before training or test to ensure their good health. Mice are randomly allocated into three treatment cohorts: placebo control, MPTP and 6-Bio. Data is plotted using GraphPad prism 5 software.
The rotarod instrument is custom made at the Mechanical workshop, National Centre of Biological Sciences, Bengaluru, India. The rotating rod (diameter 3.3 cm) is made of Delrin and is textured to enhance the grip of mice. The rod is fixed at a height of 30 cm from the cushioned platform where mice fell on to during training and test. The rod is partitioned into three areas of 9.3 cm distance between each partition using discs (40 cm diameter) made of Teflon. […] The entire trial is video recorded using a DSLR camera (Nikon D5100) and latencies are scored manually. […]

[2] = Open field test in MPTP mice; type: in vivo; settings: 5 mg/kg
Method: as §1, §2
Open field arena (50 cm×50 cm×45 cm) is custom-made (JNCASR) using plywood and the internal surface was coated with white polish. Mice are trained in open field for 2 consecutive days prior to drug injection. […] The activity is video recorded (SONY® color video camera, Model no. SSC-G118) using a software (SMART v3.0.04 from Panlah, Harvard Apparatus, USA). […] Distance travelled is analyzed offline by an experimenter who was not involved in performing the experiment.

EGFP-α-synuclein = EGFP-α-synuclein degradation assay in SH-SY5Y cells; type: cell-based, human
Method: For EGFP-α-synuclein degradation assay, equal numbers of sub-confluent SH-SY5Y cells are seeded in 6 well dishes and allowed to attach for 24 h. Cells are transfected with EGFP-α-synuclein plasmid using Lipofectamine 2000 (Life technologies) and allowed to express for 24 h.
After treatments, cells are collected in Laemmli buffer to perform LC3 processing assay, P70S6K, GSK3β and 4E-BP1 immunoblotting. To validate EGFP-α-synuclein degradation by 6-Bio, treated cells are scraped and collected in growth medium. After washing with phosphate buffer, pellets are lysed in Laemmli buffer and boiled for 10 min.
Samples are electrophoresed on SDS-PAGE (8-15%) and then transferred onto PVDF (Bio-Rad) membrane using Transblot turbo (Bio-Rad). Transferred blots are stained with Ponceau S, probed with appropriate primary antibodies overnight and subsequently horseradish peroxidase conjugated secondary antibody. Signals are developed using enhanced chemiluminescence substrate (Clarity, Bio-Rad), imaged using a gel documentation system (G-Box, Syngene) and bands are quantified using image software (NIH). (FIGS. 4F and 5A)

Atg8 and Atg5 = assay: Co-localization of GFP-Atg8 and Atg5-RedStar in yeast; type: cell-based, S. cerevisiae

SMILES: O=C1Nc2cc(Br)ccc2/C1=C1/Nc2ccccc2/C1=N\O [6-Bio, (2′Z,3′E)-6-Bromoindirubin-3′-oxime]
- latency to fall, Co versus MPTP ([1]; MPTP+Co, day 13): increased
- latency to fall, Post versus MPTP ([1]; administered after 48 h MPTP): not protected
- distance travelled, Co versus MPTP ([2]; MPTP+Co, day 13): increased dramatically
- distance travelled, Post versus MPTP ([2]; administered after 48 h MPTP): not protected
- reduction of EGFP-α-synuclein levels (EGFP-α-synuclein; 5 μM, 24 h, versus untreated): ~2 fold
- EGFP-α-synuclein levels on co-treatment with 3-MA (EGFP-α-synuclein; with 3-methyl adenine (5 mM)): does not change

SMILES: Cc1ccc(S(=O)(=O)/C=C/C#N)cc1 [Bay11, 3-[(4-methylphenyl)sulfonyl]-(2E)-propenenitrile]
- Atg5 punctate structures (Atg8 and Atg5; vs single puncta in untreated cells): multiple puncta
- co-localization between Atg8 and Atg5 dots (Atg8 and Atg5; vs untreated cells): significantly more co-localization
